Legend:
Musca domestica [1] = experiment: Toxicity in male house fly assessed as sterility; type: organism-based; settings: in vivo
Musca domestica [2] = experiment: Toxicity in mixed sex house flies assessed as sterility at 1% administered in sugar relative to control; type: organism-based; settings: in vivo, po

SMILES: C=CCN(C1=CCCCC1)P(=O)(N1CC1C)N1CC1C (configuration not stated)
- Activity (Musca domestica [1]): Non-toxic
- Activity (Musca domestica [2]): 82%

Reference: ChEMBL document CHEMBL3272018, “Synthesis of aziridinylallylaminophosphine oxides and sulfides as potential adjuvant cancer chemotherapeutic agents” (J Med Chem, 1976)
